Read-outs that look alike come from different tables or passages of the source. Marks after values point to notes of the source that are not given here.
Columns and labels:
[1] = test system: rat aortic ring microvessel outgrowth; test: rat aortic ring microvessel assay; format: cell-based; settings: for activity at 50 µM: Rattus norvegicus, 96 h, read-out: Average of Growth [%]
Method: The anti-angiogenic activity of the compounds was tested following the procedure described in Lepper, E. R., Ng, S. S., Gutschow, M., Weiss, M., Hauschildt, S., Hecker, T. K., Luzzio, F. A., Eger, K., Figg, W. D., J. Med. Chem. 2004, Comparative molecular field analysis and comparative molecular similarity indices analysis of thalidomide analogues as angiogenesis inhibitors; 47(9):2219-27. Twelve-well tissue culture-grade plates were covered with 250 μL Matrigel and allowed to gel for 30 to 45 minutes at 37° C., 5% CO2. Thoracic aortas were excised from 6- to 8-week-old male Sprague-Dawley rats, and the fibroadipose tissue was removed. The aortas were cut into 1 mm-long cross-sections and placed on the Matrigel coated wells. They were then covered with an additional 250 μL Matrigel and allowed to gel for 30 to 45 minutes at 37° C., 5% CO2. The rings were cultured for 24 hours in 1 mL EBM-2. After 24 hours, the medium was removed and replaced with 1 mL EBM-2 (Clonetics Corp.), supplemented with fetal bovine serum (2%), ascorbic acid, hydrocortisone, heparin, and amphotericin. Each selected compound was dissolved in DMSO and added to the EBM-2, before it was added to the well. Each selected compound was administered daily for four days at a daily dosage of 50 μM. Photos were taken on Day 5. DMSO alone was used as a control baseline. Carboxyamidotriazole (“CAI” from NCI, Bethesda, Md.) was used as a positive control. The vascular outgrowth was quantified using Adobe Photoshop (Adobe Systems, Inc., San Jose, Calif.) and the results are provided below in Tables 1 and 2.

[2] = test system: Human prostate cancer cell lines (PC3s); test: PC3 Proliferation Assay (hemocytometer count, trypan blue); format: cell-based; settings: 24 hours, cell count normalized to DMSO control, concentration not given
Method: (§1) Human umbilical vein endothelial cells (HUVECs (Clonetics)) were maintained in EGM-II, supplemented with a Bullet-Kit (Clonetics). Human prostate cancer cell lines (PC3s (ATCC)) were maintained in RPMI-1640, supplemented with 10% fetal bovine serum. Both cell lines were incubated at 37° C., in a 5% CO2 atmosphere. Cells were seeded onto 12-well plates at a density of 30,000 cells/well and allowed to attach overnight at 37° C. and 5% CO2. The culture medium was then aspirated, and fresh culture medium containing either the vehicle (0.5% DMSO) or drug solution in 0.5% DMSO was added. After 24 hours, media was removed, then cells were trypsinized and counted with a hemocytometer, using trypan blue to exclude non-viable cells. Each compound was tested in triplicate and the cell count was normalized to the controls, to give the % growth. The results are shown below in Tables 3 and 4, and in FIGS. 5 and 6.

[3] = test system: HUVEC; test: HUVEC Proliferation Assay, CCK-8 counting; format: cell-based, human; settings: 24 h incubation
Method: as §1
(§2) The experiments for the data in Table 5 was performed as described above, except that the Table 5 experiments were performed in […] (at two concentrations), and the CCK-8 Cell Counting Kit (Dajindo Technologies) was utilized after treating for 24 hours.

[4] = test system: PC3; test: PC3 Proliferation Assay, CCK-8 counting; format: cell-based, human; settings: 24 h incubation
Method: as §1, §2

[5] = test system: Human umbilical vein endothelial cells (HUVECs); test: HUVEC Proliferation Assay (hemocytometer count, trypan blue); format: cell-based; settings: 24 hours, cell count normalized to DMSO control, concentration not given
Method: as §1

[6] = test system: rat aortic ring microvessel outgrowth; settings: 50 μM; data reported in Lepper et al., J. Med. Chem. 2004; cited from earlier work

Structure (SMILES): CN1C(=O)NC(=O)C(C)(N2C(=O)c3c(F)c(F)c(F)c(F)c3C2=O)C1=O (racemic) [Compound 19a, 1,5-Dimethyl-5-(4,5,6,7-tetrafluoro-1,3-dihydro-1,3-dioxo-2H-isoindol-2-yl)-2,4,6-(1H,3H,5H)-pyrimidinetrione]
- activity at 50 µM [1]: 0.12%

Structure (SMILES): CCCN1C(=O)NC(=O)C(C)(N2C(=O)c3c(F)c(F)c(F)c(F)c3C2=O)C1=O (racemic) [Compound 19b, 5-Methyl-1-propyl-5-(4,5,6,7-tetrafluoro-1,3-dihydro-1,3-dioxo-2H-isoindol-2-yl)-2,4,6(1H,3H,5H)-pyrimidinetrione]
- Average of Growth [%] [2]: 1.50%
- activity at 50 µM [1]: 0.13%

Structure (SMILES): CC(C)N1C(=O)NC(=O)C(C)(N2C(=O)c3c(F)c(F)c(F)c(F)c3C2=O)C1=O (racemic) [Compound 19c, 1-Isopropyl-5-methyl-5-(4,5,6,7-tetrafluoro-1,3-dihydro-1,3-dioxo-2H-isoindol-2-yl)-2,4,6(1H,3H,5H)-pyrimidinetrione]
- Average of Growth [%] [2]: 3.75%
- activity at 50 µM [1]: 0.14%

Structure (SMILES): CCN1C(=O)NC(=O)C(CC)(N2C(=O)c3c(F)c(F)c(F)c(F)c3C2=O)C1=O (racemic) [Compound 19d, 1,5-Diethyl-5-(4,5,6,7-tetrafluoro-1,3-dihydro-1,3-dioxo-2H-isoindol-2-yl)-2,4,6-(1H,3H,5H)-pyrimidinetrione]
- activity at 50 µM [1]: 0.13%

Structure (SMILES): CCCN1C(=O)NC(=O)C(CC)(N2C(=O)c3c(F)c(F)c(F)c(F)c3C2=O)C1=O (racemic) [Compound 19e, 5-Ethyl-1-propyl-5-(4,5,6,7-tetrafluoro-1,3-dihydro-1,3-dioxo-2H-isoindol-2-yl)-2,4,6(1H,3H,5H)-pyrimidinetrione]
- HUVEC Growth (5 uM) (Control = 100%) Mean [3]: 1.68%
- HUVEC Growth (10 uM) (Control = 100%) Mean [3]: 2.14%
- activity at 50 µM [1]: 0.12%
- PC3 Growth (5 uM) (Control = 100%) Mean [4]: 31.02%
- PC3 Growth (10 uM) (Control = 100%) Mean [4]: 9.67%

Structure (SMILES): CCN1C(=O)NC(=O)C(C)(N2C(=O)c3c(F)c(F)c(F)c(F)c3C2=O)C1=O (racemic) [Compound 19f, 1-Ethyl-5-methyl-5-(4,5,6,7-tetrafluoro-1,3-dihydro-1,3-dioxo-2H-isoindol-2-yl)-2,4,6(1H,3H,5H)-pyrimidinetrione]
- HUVEC Growth (5 uM) (Control = 100%) Mean [3]: 27.17%
- HUVEC Growth (10 uM) (Control = 100%) Mean [3]: 9.00%
- activity at 50 µM [1]: 23.8%
- PC3 Growth (5 uM) (Control = 100%) Mean [4]: 25.95%
- PC3 Growth (10 uM) (Control = 100%) Mean [4]: 10.94%

Structure (SMILES): CCC1(N2C(=O)c3c(F)c(F)c(F)c(F)c3C2=O)C(=O)NC(=O)N(C(C)C)C1=O (racemic) [Compound 19g, 5-Ethyl-1-isopropyl-5-(4,5,6,7-tetrafluoro-1,3-dihydro-1,3-dioxo-2H-isoindol-2-yl)-2,4,6(1H,3H,5H)-pyrimidinetrione]
- Average of Growth [%] [2]: 1.50%
- activity at 50 µM [1]: 0.13%

Structure (SMILES): CC1(N2C(=O)c3c(F)c(F)c(F)c(F)c3C2=O)C(=O)NC(=O)N(C2CCCCC2)C1=O (racemic) [Compound 19h, 1-Cyclohexyl-5-methyl-5-(4,5,6,7-tetrafluoro-1,3-dihydro-1,3-dioxo-2H-isoindol-2-yl)-2,4,6(1H,3H,5H)-pyrimidinetrione]
- activity at 50 µM [1]: 11.8%

Structure (SMILES): CCC1(N2C(=O)c3c(F)c(F)c(F)c(F)c3C2=O)C(=O)NC(=O)N(C2CCCCC2)C1=O (racemic) [Compound 19i, 1-Cyclohexyl-5-ethyl-5-(4,5,6,7-tetrafluoro-1,3-dihydro-1,3-dioxo-2H-isoindol-2-yl)-2,4,6(1H,3H,5H)-pyrimidinetrione]
- activity at 50 µM [1]: 11.2%

Structure (SMILES): CN1C(=O)NC(=O)C(C)(NC(=O)c2cc(F)c(F)c(F)c2F)C1=O (racemic) [Compound 20a, N-(Hexahydro-1,5-dimethyl-2,4,6-trioxo-5-pyrimidinyl)-2,3,4,5-tetrafluorobenzamide]
- activity at 50 µM [1]: 58.3%

Structure (SMILES): CCCN1C(=O)NC(=O)C(C)(NC(=O)c2cc(F)c(F)c(F)c2F)C1=O (racemic) [Compound 20b, N-(Hexahydro-5-methyl-2,4,6-trioxo-1-propyl-5-pyrimidinyl)-2,3,4,5-tetrafluorobenzamide]
- activity at 50 µM [1]: 23.1%

Structure (SMILES): CC(C)N1C(=O)NC(=O)C(C)(NC(=O)c2cc(F)c(F)c(F)c2F)C1=O (racemic) [Compound 20c, N-(Hexahydro-1-isopropyl-5-methyl-2,4,6-trioxo-5-pyrimidinyl)-2,3,4,5-tetrafluorobenzamide]
- activity at 50 µM [1]: 5.63%

Structure (SMILES): CCN1C(=O)NC(=O)C(CC)(NC(=O)c2cc(F)c(F)c(F)c2F)C1=O (racemic) [Compound 20d, N-(1,5-Diethyl-hexahydro-2,4,6-trioxo-5-pyrimidinyl)-2,3,4,5-tetrafluorobenzamide]
- HUVEC Growth (5 uM) (Control = 100%) Mean [3]: 11.46%
- HUVEC Growth (10 uM) (Control = 100%) Mean [3]: 14.53%
- activity at 50 µM [1]: 31.1%
- PC3 Growth (10 uM) (Control = 100%) Mean [4]: 87.73%

Structure (SMILES): CCCN1C(=O)NC(=O)C(CC)(NC(=O)c2cc(F)c(F)c(F)c2F)C1=O (racemic) [Compound 20e, N-(5-Ethyl-hexahydro-2,4,6-trioxo-1-propyl-5-pyrimidinyl)-2,3,4,5-tetrafluorobenzamide]
- Average of Growth [%] [2]: 26.27%
- activity at 50 µM [1]: 0.19%
- Average of Growth [%] [5]: 24.05%

Structure (SMILES): CCN1C(=O)NC(=O)C(C)(NC(=O)c2cc(F)c(F)c(F)c2F)C1=O (racemic) [Compound 20f, N-(1-Ethyl-hexahydro-5-methyl-2,4,6-trioxo-5-pyrimidinyl)-2,3,4,5-tetrafluorobenzamide]
- activity at 50 µM [1]: 16.8%

Structure (SMILES): CCC1(NC(=O)c2cc(F)c(F)c(F)c2F)C(=O)NC(=O)N(C(C)C)C1=O (racemic) [Compound 20g, N-(5-Ethyl-hexahydro-1-isopropyl-2,4,6-trioxo-5-pyrimidinyl)-2,3,4,5-tetrafluorobenzamide]
- Average of Growth [%] [2]: 38.46%
- activity at 50 µM [1]: 0.1%
- Average of Growth [%] [5]: 62.03%

Structure (SMILES): CC1(NC(=O)c2cc(F)c(F)c(F)c2F)C(=O)NC(=O)N(C2CCCCC2)C1=O (racemic) [Compound 20h, N-(1-Cyclohexyl-hexahydro-5-methyl-2,4,6-trioxo-5-pyrimidinyl)-2,3,4,5-tetrafluorobenzamide]
- Average of Growth [%] [2]: 34.52%
- activity at 50 µM [1]: 16.5%
- Average of Growth [%] [5]: 91.14%

Structure (SMILES): CCC1(NC(=O)c2cc(F)c(F)c(F)c2F)C(=O)NC(=O)N(C2CCCCC2)C1=O (racemic) [Compound 20i, N-(1-Cyclohexyl-5-ethyl-hexahydro-2,4,6-trioxo-5-pyrimidinyl)-2,3,4,5-tetrafluorobenzamide]
- activity at 50 µM [1]: 9.73%

Structure (SMILES): CCC1(NC(=O)c2cc(F)c(F)c(F)c2F)C(=O)NC(=O)N(c2ccccc2)C1=O (racemic) [Compound 20k, N-(5-Ethyl-hexahydro-2,4,6-trioxo-1-phenyl-5-pyrimidinyl)-2,3,4,5-tetrafluorobenzamide]
- activity at 50 µM [1]: 18.1%

Structure (SMILES): NC(=O)c1nnn(Cc2cc(Cl)c(C(=O)c3ccc(Cl)cc3)c(Cl)c2)c1N [CAI, Carboxyamidotriazole, reference compound]
- activity at 50 µM ([1]; phthalimides 19, 50 μM daily for four days, DMSO control = 100): 4.03%
- Average of Growth [%] ([1]; tetrafluorobenzamides 20, 50 μM daily for four days, DMSO control = 100): 4.03%

Structure (SMILES): CCC1(N2C(=O)c3c(F)c(F)c(F)c(F)c3C2=O)C(=O)NC(=O)N(c2ccccc2)C1=O (stereo not drawn) [Compound 19k]
- Average of Growth [%] [6]: 24.25^[a] %

From patent publication US8143252B2, “Tetrahalogenated compounds useful as inhibitors of angiogenesis” (The United States of America as represented by the …, priority 2006, dated 2012)
